# Measured values from patent publication US8952025B2, “Multifunctional radical quenchers and their uses” (Arizona Board of Regents, A Body Corporate of the State of …, priority 2010, dated 2015).
# Entries after “also recorded” stand apart in the source; their conditions may differ.
# What was measured:
# cytochrome c = assay: Cytochrome c reduction assay; format: biochemical; settings: 100 μM compound, 10 μM cytochrome c, absorbance 550 nm
# Description: The rate of cytochrome c (10 μM) reduction was measured by monitoring the change in absorbance at 550 nm. Briefly the reaction was initiated by addition of 100 μM of the invention compounds to a mixture containing 50 mM phosphate buffer, 0.1 mM EDTA, pH 7.8, and 10 μM cytochrome c (Sigma, St. Louis, Mo. USA). For cytochrome c reduction by superoxide, xanthine oxidase (0.01 IU/mL) (Sigma, St. Louis, Mo. USA) was used in presence of xanthine (50 μM).
# [1] = C11-BODIPY581/591 oxidation lipid peroxidation assay in liposomes; settings: 10 mM AAPH, phospholipid liposomes, phosphate buffer, 40° C.
# Description: To overcome the problem of spectral overlap using cis-parinaric acid, a fluorescence assay for lipid peroxidation using a lipophilic probe belonging to the BODIPY class of fluorescent dyes was used. C11-BODIPY^581/591 (4,4-difluoro-5(4-phenyl-1,3-butadienyl)-4-bora-3a,4a-diaza-s-indacene-3-propionic acid) fluorescence shifts from red to green upon oxidation. C11-BODIPY^581/591 (Molecular Probes, Eugene, Oreg., USA) stock solution concentrations were determined by measuring the absorption of C11-BODIPY^581/591 at 582 nm using a molar extinction coefficient of 140,000 mol^−1 cm^−1(R. P. Haugland, (1999) Handbook of Fluorescent Probes and Research Chemicals, Molecular Probes, Inc., Eugene, Oreg.). The lipid peroxidation inducer 2,2′-Azobis (2-amidino-propane dihydrochloride) (AAPH) and the antioxidant compound α-tocopherol were obtained from Sigma (St. Louis, Mo., USA). Phospholipid bilayers were prepared from 1-stearoyl-2-oleoyl-phosphatidylcholine (SOPC) and 1,2-dilinoleoyl-phosphatidylcholine (DLPC) and were purchased from Avanti® polar lipids, INC (Alabaster, Ala., USA).
# Phosphotidylcholine (PC) liposomes were prepared as described before (Guey-Shuang et al. (1982) Lipids. 17, 403-413). Briefly, DLPC (25 mg) and SOPC (25 mg) were dissolved in chloroform and the solvent was removed by nitrogen evaporation (˜2 hours to give a thin film of PC in a round bottom flask. The lipid film was hydrated with 50 mL of 10 mM Tris-HCl (pH 7.4), 100 mM KCl, shaken and sonicated for 15 seconds. The liposomes obtained were filtered several times through 0.2 μM membrane filter.
# C11 BODIPY^581/591 was incorporated into liposomes and oxidized by peroxyl radicals derived from the decomposition of AAPH in presence and absence of the compounds. […] Liposomes were pre-incubated for 10 min with 200 nM C11 BODIPY^581/591 to allow their incorporation into the lipid phase of the liposomes. After the addition of AAPH (10 mM) the decay of red fluorescence was followed at λ exc=570 nm, λ em=600 nm. Relative fluorescence units were normalized to 100% intensity. Results obtained were verified by repeating experiments N=3 independent experiments.
# CEM cells [2] = assay: Trypan blue cell viability assay, DEM-treated cells; format: cell-based, human; settings: for maintaining cell viability (trypan blue exclusion): overnight incubation, then 5 mM DEM, 3 h
# Description: Cell viability determined by trypan blue exclusion assay: This technique was used to assess the cytoprotective effects of the invention compounds in cultured cells pharmacologically treated to induce cell death by GSH depletion. DEM was used to deplete cellular GSH and induce oxidative stress. The viability of DEM-treated CEM cells was determined by their ability to exclude the dye trypan blue. Viable cells exclude trypan blue; whereas, non-viable cells take up the dye and stain blue. Briefly, CEM cells were grown in RPMI 1640 medium (GIBCO, Grand island, N.Y., USA) supplemented with 10% fetal calf serum, 2 mM glutamine (HyClone, South Logan, Utah, USA), 1% penicillin-streptomycin mix (Cellgro, Manassan, Va., USA). Cells were seeded at a density of 1×10^6 cells/mL and treated with different concentrations of the invention compounds. Cells were incubated at 37° C. in a humidified atmosphere of 5% CO2 in air for three hours with 5 mM DEM. Cell viability was determined by staining cells with 0.4% trypan blue using a hemacytometer. At least 500 cells were counted for each experimental group. At the time of assay, >95% of DEM-treated cells were trypan blue positive; whereas, in non-DEM treated control cell cultures >95% cells were viable. Cell viability was expressed as the percentage of control. Data are expressed as means±S.E.M (n=3).
# CEM leukemia cells [3] = assay: Mitochondrial membrane potential (Δψm) assay, TMRM, FACS; format: cell-based, human; settings: pretreatment 0.5, 1 or 2.5 μM overnight, DEM
# Description: Measurement of Mitochondrial Membrane Potential (Δψm)(FACS). For the determination of Δψm, CEM leukemia cells were pre-treated with or without the test compounds. The cells were treated with 5 mM DEM for 120 minutes, collected by centrifugation at 300×g for 3 minutes and then washed twice with phosphate buffered saline. The cells were re-suspended in HSSB buffer and incubated at 37° C. in the dark for 15 minutes with 250 nM TMRM (a cationic dye which accumulates within mitochondria in accordance with the Δψm Nernst potential). Cells were collected by centrifugation at 300×g for 3 minutes and then washed twice with phosphate buffered saline. The samples were analyzed immediately by flow cytometry using 488 nm excitation laser and the FL2-H channel. The results obtained were verified in three independent experiments. The protonophore FCCP (30 μM) was used to dissipate the chemiosmotic proton gradient (ΔμH^+) and served as a control for loss of Δψm. In each analysis, 10,000 events were recorded.
# CEM cells [4] = assay: Reactive oxygen species (ROS) assay, DCFH-DA, DEM-treated cells; format: cell-based, human
# Excerpt: Cellular ROS production can be monitored using 2′,7′-dichlorodihydrofluorescein diacetate (DCFH-DA) (LeBel et al. (1992) Chem. Res. Toxicol. 5, 227-231) (Molecular Probes, Eugene, Oreg., USA), a membrane permeable and oxidant-sensitive fluorescent dye. DCFH-DA is a non-fluorescent derivative of fluorescein that emits fluorescence after being oxidized by hydrogen peroxide and other ROS. The emitted fluorescence is directly proportional to the concentration of hydrogen peroxide. DCFH-DA is nonionic and nonpolar and is easily taken up by cells. Once inside the cell, DCFH-DA is hydrolyzed by cellular esterases to non-fluorescent DCFH which traps the dye in the cell. In the presence of ROS including hydrogen peroxide, DCFH is oxidized to the highly fluorescent compound dichlorofluorescein (DCF). The intracellular DCF fluorescence is used as an index of cellular ROS production.
# Cellular oxidative stress was induced by pharmacological depletion of glutathione (GSH) using the chemical diethylmaleate (DEM). ROS production was assessed by monitoring DCF fluorescence. Leukemic CEM cells (ATCC®, catalogue number CRL-2264) were cultured in RPMI (GIBCO, Grand island, N.Y., USA) with 10% FCS, 2 mM glutamine (HyClone, South Logan, Utah, USA) and 1% penicillin-streptomycin mix antibiotics (Cellgro, Manassan, Va., USA) supplements. Cells were maintained in the log phase at a concentration of between 1×10^5 and 1×10^6 cells/mL. CEM cells (1×10^6 cell/mL) were plated (1 mL) in twelve well plate and treated with the invention compounds (final concentration 1 and 5 μM), and incubated for two hours at 37° C., 5% CO2. The compounds tested were prepared by first making stock solutions (2.5 mM) in dimethylsulfoxide (DMSO). Cells were treated with 5 mM DEM for 30 minutes and collected by centrifugation at 300×g for 3 min and then washed twice with Hanks' Balanced Salt Solution (HSSB) buffer (Sigma, St. Louis, Mo. USA). Cells were resuspended in HSSB buffer+10 mM glucose and incubated at 37° C. in the dark for 20 min with 10 μM DCFH-DA. Cells were collected by centrifugation at 300×g for 3 min and then washed twice with HSSB buffer. The samples were analyzed immediately by flow cytometry (Becton-Dickinson FACS Caliber), (Cell Quest software, BD Biosciences) using 488 nm excitation laser and FL1-H channel 538 nm emission filter. In each analysis, 10,000 events were recorded after cell debris were electronically gated out. Results obtained were verified by repeating experiments N=3 independent experiments. Authentic hydrogen peroxide was used as a positive control.
# [5] = James et al. (2005); cited from earlier work
# Human CEM leukemia cells = assay: Live/Dead Viability/Cytotoxicity flow cytometry assay; format: cell-based; settings: overnight incubation, then DEM 3 hours
# Description: Cell viability and cytotoxicity were determined by simultaneous staining live and dead cells using a two-color fluorescence assay, the Live/Dead® Viability/Cytotoxicity Kit (Molecular Probes). This assay is used to measure two recognized parameters of cell viability, intracellular esterase activity and plasma integrity. The membrane-impermeant DNA dye ethidium homodimer-1 (EthD-1) was used to identify dead cells whose plasma membrane integrity was disrupted. The membrane-permeant dye calcein-AM was used to label live cells. It penetrates into the cells where it is metabolized by cytoplasmic esterases and becomes a fluorescent but membrane-impermeant probe which is retained in viable cells. Human CEM leukemia cells were incubated overnight in RPMI medium (control) and in the presence of test compound and then treated with DEM for 3 hours. Cells were stained with 0.2 μM calcein-AM and 0.4 μM EthD-1. After 15 minutes, flow cytometry analysis was carried out using excitation at 488 nm. The green-fluorescent (539 nm) FL1-H channel, live-cell population appears in the lower right quadrant and the red-fluorescent (585 nm) FL2-H channel dead-cell population appears in the upper left quadrant (FIG. 11). In each analysis, 10,000 events were recorded. Results obtained were verified in three independent experiments.
# CEM leukemia cells [6] = assay: C11-BODIPY581/591 oxidation in cell culture (lipid peroxidation); format: cell-based, human; settings: 2.5 or 1 μM, pretreatment 4 or 24 hours, glutathione depleted
# Description: Lipid peroxidation in CEM leukemia cells was detected by utilizing the oxidant-sensitive lipophilic probe C11 BODIPY^581/591. Briefly, CEM cells (5×10^5 cell/mL) were treated with the test compounds at final concentrations of 1 and 2.5 μM, and incubated at 37° C. for 4 or 24 h in a humidified atmosphere containing 5% CO2 in air. Cells were treated with 500 nM C11 BODIPY^581/591 in phenol red-free RPMI-1640 media and incubated at 37° C. in the dark for 30 minutes. The cells were washed twice with phosphate buffered saline and oxidative stress was induced with 5 mM DEM in phenol red-free RPMI-1640 media for 90 minutes. Treated cells were collected by centrifugation at 300×g for 3 minutes and then washed twice with phosphate buffered saline. Cells were resuspended in 250 μL of phosphate buffered saline and were analyzed by FACS (FACS Calibur flow cytometer, Becton Dickinson) to monitor the change in intensity of the C11 BODIPY^581/591-green (oxidized) fluorescence signal.
Structure (SMILES),reduction of cytochrome c (cytochrome c),quenching of lipid peroxidation (retention of C11-BODIPY581/591 fluorescence) [1],"EC50 (CEM cells [2]; Homo sapiens, CCRF-CEM, CEM cells, pre-treatment 2 h, diethylmaleate 3 h, trypan blue exclusion, read-out: EC50 (effective concentration that prevents 50% of cell death))",maintaining cell viability (trypan blue exclusion) (CEM cells [2]),maintaining mitochondrial membrane potential Δψm (CEM leukemia cells [3]),"protection against ROS production (DCF fluorescence) (CEM cells [4]; compound 1 μM, 5 mM DEM)","protection against ROS production (DCF fluorescence) (CEM cells [4]; compound 5 μM, 5 mM DEM)","suppression of ROS production (DCF fluorescence) (CEM cells [4]; pretreatment 0.5, 1 or 5 μM, DEM)",calculated octanol-water partition coefficient [5],"quenching of lipid peroxidation (retention of C11-BODIPY581/591 fluorescence) ([1]; listed as 1,4,6-trimethyl-2,3-dihydro-1H-pyrrolo[2,3-b]pyridin-5-ol)",quenching of lipid peroxidation (retention of C11-BODIPY581/591 fluorescence) ([1]; listed as Compound C redox core),"maintaining cell viability (Live/Dead kit, flow cytometry) (Human CEM leukemia cells)",protection against lipid peroxidation in cells (C11-BODIPY581/591 green fluorescence) (CEM leukemia cells [6]),"protection against ROS production (DCF fluorescence) (CEM cells [4]; 5 μM, pretreatment 4 or 24 h)"
"Cc1cc(N(C)C)nc(CCCCCCCCCCO)c1O [Compound B, 2-N,N-dimethylamino-5-hydroxy-4-methyl-6-(10-hydroxydecyl)-pyridine]",clearly reduce cytochrome c,about as effective as C,300 ± 22 nM,quite effective in maintaining cell viability following DEM treatment; also recorded: superior to idebenone in maintaining the viability of DEM-treated cells,clearly more effective in maintaining mitochondrial membrane potential; also recorded: very favorable properties,less effective at this concentration,significantly more effective in blocking diethylmaleate-induced ROS production compared to idebenone or its reduced form (Idebenol); also recorded: protected the cells,more effective than idebenone at all tested concentrations; also recorded: more effective than idebenone in suppressing ROS in a dose-dependent fashion,,,,,,
COC1=C(OC)C(=O)C(C/C=C(\C)CC/C=C(\C)CC/C=C(\C)CC/C=C(\C)CC/C=C(\C)CC/C=C(\C)CC/C=C(\C)CC/C=C(\C)CC/C=C(\C)CCC=C(C)C)=C(C)C1=O [coenzyme Q10],,,,,,,,,> 10^20,,,,,
"Cc1nc2c(c(C)c1O)CCN2C [compound C redox core, 1,4,6-trimethyl-2,3-dihydro-1H-pyrrolo[2,3-b]pyridin-5-ol, reference compound]",,,,quite ineffective,,,,,,much less effective in the same assay system,less effective than compound C itself,quite ineffective,no protection,no protection
